# Laboratory results reported in ChEMBL document CHEMBL1201862, “PubChem BioAssay data set” (2004).
#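 How tested: cells in 96-well plates exposed to compound for 48 hours at five concentrations. Abbreviation: GI50, concentration required for 50% inhibition of growth.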 Activity calls are given as the source filed them. Cut-off read from the data, not from the text of the source: active = GI50 up to about 1.1 µM and inactive = higher.
# Assays:
# Assay in all cases: NCI anticancer screen, dose series, 48 h
# [1] = system: Malme-3M
# [2] = system: ACHN
# [3] = system: SF-539
# [4] = system: SNB-78
# [5] = system: DLD-1
# [6] = system: KM-20L2
# [7] = system: LOX IMVI
# [8] = system: KM12
# [9] = system: A549
# [10] = system: DMS-114
# [11] = system: CCRF-CEM
# [12] = system: SK-OV-3
# [13] = system: OVCAR-3
# [14] = system: HOP-18
# [15] = system: OVCAR-5
# [16] = system: M19-MEL
# [17] = system: RPMI-8226
# [18] = system: DMS-273
# [19] = system: UACC-257
# [20] = system: NCI-H460
# [21] = system: HCT-15
# [22] = system: NCI-H23
# [23] = system: TK-10
# [24] = system: K562
# [25] = system: SNB-75
# [26] = system: SW-620
# [27] = system: HOP-62
# [28] = system: NCI-H226
# [29] = system: EKVX
# [30] = system: NCI-H522
# [31] = system: SF-295
# [32] = system: OVCAR-8
# [33] = system: CAKI-1
# [34] = system: SK-MEL-2
# [35] = system: SK-MEL-28
# [36] = system: HCC 2998
# [37] = system: SN12C
# [38] = system: SF-268
# [39] = system: HL-60
# [40] = system: UACC-62
# [41] = system: COLO 205
# [42] = system: U-251
# [43] = system: UO-31
# [44] = system: SK-MEL-5
# [45] = system: HOP-92
# [46] = system: IGROV-1
# [47] = system: A498
# [48] = system: RXF 631
# [49] = system: RXF 393
# [50] = system: MOLT-4
# [51] = system: 786-0
smiles,measurement,setting,value
COc1cc(/C=C/C(=O)c2sc(-n3nc(-c4ccccc4)cc3-c3ccccc3)nc2C)ccc1O,GI50,[1],> 100 µM (inactive)
same,GI50,[2],> 100 µM (inactive)
same,GI50,[3],> 100 µM (inactive)
same,GI50,[4],> 100 µM (inactive)
same,GI50,[5],> 100 µM (inactive)
same,GI50,[6],> 100 µM (inactive)
same,GI50,[7],> 100 µM (inactive)
same,GI50,[8],15.5 µM (inactive)
same,GI50,[9],> 100 µM (inactive)
same,GI50,[10],5.35 µM (inactive)
same,GI50,[11],> 100 µM (inactive)
same,GI50,[12],> 100 µM (inactive)
same,GI50,[13],> 100 µM (inactive)
same,GI50,[14],26.5 µM (inactive)
same,GI50,[15],> 100 µM (inactive)
same,GI50,[16],> 100 µM (inactive)
same,GI50,[17],> 100 µM (inactive)
same,GI50,[18],> 100 µM (inactive)
same,GI50,[19],> 100 µM (inactive)
same,GI50,[20],> 100 µM (inactive)
same,GI50,[21],28.5 µM
same,GI50,[22],> 100 µM (inactive)
same,GI50,[23],> 100 µM (inactive)
same,GI50,[24],32.7 µM (inactive)
same,GI50,[25],7.36 µM (inactive)
same,GI50,[26],> 100 µM (inactive)
same,GI50,[27],> 100 µM (inactive)
same,GI50,[28],> 100 µM (inactive)
same,GI50,[29],4.7 µM (inactive)
same,GI50,[30],14.5 µM (inactive)
same,GI50,[31],57 µM (inactive)
same,GI50,[32],> 100 µM (inactive)
same,GI50,[33],6.64 µM (inactive)
same,GI50,[34],> 100 µM (inactive)
same,GI50,[35],> 100 µM (inactive)
same,GI50,[36],> 100 µM (inactive)
same,GI50,[37],> 100 µM (inactive)
same,GI50,[38],> 100 µM (inactive)
same,GI50,[39],49.9 µM (inactive)
same,GI50,[40],> 100 µM (inactive)
same,GI50,[41],> 100 µM (inactive)
same,GI50,[42],> 100 µM (inactive)
same,GI50,[43],> 100 µM (inactive)
same,GI50,[44],55.2 µM (inactive)
same,GI50,[45],2.47 µM (inactive)
same,GI50,[46],94.6 µM (inactive)
same,GI50,[47],> 100 µM (inactive)
same,GI50,[48],> 100 µM (inactive)
same,GI50,[49],13 µM (inactive)
same,GI50,[50],17.5 µM (inactive)
same,GI50,[51],> 100 µM (inactive)
